Results reported in ChEMBL document CHEMBL3085630, “Thienopyrimidine bisphosphonate (ThPBP) inhibitors of the human farnesyl pyrophosphate synthase: optimization and characterization of the mode of inhibition” (J Med Chem, 2013).
Active and inactive are the calls of the source. No cut-off for these calls is given here.

Tests used:
[1] = target: T1, Farnesyl pyrophosphate synthase (Homo sapiens) (UniProt P14324); assay: Inhibition of human recombinant FPPS using GPP/[3H]IPP as substrate at 100 nM incubated for 10 mins prior to substrate addition measured after 8 mins by scintillation counting analysis
T1 sequence (whole entry): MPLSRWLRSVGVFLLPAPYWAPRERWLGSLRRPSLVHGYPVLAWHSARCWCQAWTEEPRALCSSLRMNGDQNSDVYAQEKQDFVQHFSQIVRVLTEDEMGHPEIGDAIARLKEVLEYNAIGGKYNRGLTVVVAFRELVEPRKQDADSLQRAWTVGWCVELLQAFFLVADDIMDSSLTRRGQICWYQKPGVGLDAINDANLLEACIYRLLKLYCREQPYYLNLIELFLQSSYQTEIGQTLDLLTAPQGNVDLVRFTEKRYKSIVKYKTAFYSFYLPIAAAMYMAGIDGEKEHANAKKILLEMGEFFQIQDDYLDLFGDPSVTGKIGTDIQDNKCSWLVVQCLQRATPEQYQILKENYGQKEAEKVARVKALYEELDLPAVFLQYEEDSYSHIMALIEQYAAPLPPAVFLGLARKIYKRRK

Hydroxyapatite = assay: Binding affinity to bone mineral hydroxyapatite at 50 uM after 5 mins by NMR-spectroscopic analysis
[2] = target: T2, Farnesyl pyrophosphate synthase (Homo sapiens, UniProt P14324); assay: Inhibition of human recombinant FPPS using GPP/[3H]IPP as substrate incubated for 10 mins prior to substrate addition by scintillation counting analysis
T2 sequence (P14324 whole entry): T1 sequence (whole entry)

[3] = target: T2, Farnesyl pyrophosphate synthase; assay: Inhibition of human recombinant FPPS using GPP/[3H]IPP as substrate incubated for 10 mins prior to substrate addition measured after 8 mins by scintillation counting analysis

inhibition [1] [%] | Activity (Hydroxyapatite) | SMILES | other results
< 20 | – | O=P(O)(O)C(Nc1ncnc2sc(-c3cccc4[nH]ncc34)cc12)P(=O)(O)O | –
< 20 | – | Cc1noc(C)c1-c1cc2c(NC(P(=O)(O)O)P(=O)(O)O)ncnc2s1 | –
73 | Active | O=P(O)(O)C(Nc1ncnc2sc(-c3ccc(C(F)(F)F)cc3)cc12)P(=O)(O)O | –
30 | – | O=P(O)(O)C(Nc1ncnc2sc(-c3cccc(C(F)(F)F)c3)cc12)P(=O)(O)O | –
< 20 | – | O=P(O)(O)C(Nc1ncnc2sc(-c3ccc4[nH]ncc4c3)cc12)P(=O)(O)O | –
– | Active | O=P(O)(O)C(Nc1ncnc2sc(-c3ccc(C4CC4)cc3)cc12)P(=O)(O)O | IC50 [2]: 115 nM; IC50 [3]: 39 nM
– | Active | O=P(O)(O)C(Nc1ncnc2sc(-c3ccc(OC4CC4)cc3)cc12)P(=O)(O)O | –
– | – | CC(C)Oc1ccc(-c2cc3c(NC(P(=O)(O)O)P(=O)(O)O)ncnc3s2)cc1 | IC50 [3]: 200 nM
– | – | COc1ccc(-c2cc3c(NC(P(=O)(O)O)P(=O)(O)O)ncnc3s2)cc1 | IC50 [2]: 440 nM
– | Active | O=P(O)(O)C(O)(Cc1cccnc1)P(=O)(O)O | –
– | – | O=P(O)(O)C(Nc1ncnc2sc(-c3ccc(C4CC4(F)F)cc3)cc12)P(=O)(O)O (centres undefined) | IC50 [2]: 140 nM
